{"source": "patent US20100041716A1", "about": "“[…] USE IN TREATING OR PREVENTING HYPERCHOLESTEROLEMIA” (MITOS PHARMACEUTICALS, INC., priority 2006, published 2010)", "key": {"NSDHL": {"test_system": "NSDHL", "assay": "Protein level in patient after Tempol treatment", "assay_type": "in vivo, human", "details": "1500 mg per day for 180 days", "description": "(§1) A 70-kilogram patient having levels of fasting plasma total cholesterol indicative of hypercholesterolemia is administered a dose of 1500 mg of Tempol per day for 180 days. This may be administered in a single dose, or may be administered as a number of smaller doses over a 24-hour period: for example, three 500-mg doses at eight-hour intervals. Following treatment, the protein level of each of LSS, FDPS, and NSDHL is reduced.\n(§2) A 70-kilogram patient at risk for developing hypercholesterolemia is administered a dose of 1500 mg of Tempol per day for 180 days. This may be administered in a single dose, or may be administered as a number of smaller doses over a 24-hour period: for example, three 500-mg doses at eight-hour intervals. Following treatment, the protein level of each of LSS, FDPS, and NSDHL is reduced."}, "LSS": {"test_system": "LSS", "assay": "Protein level in patient after Tempol treatment", "assay_type": "in vivo, human", "details": "1500 mg per day for 180 days", "description": "as §1, §2"}, "FDPS": {"test_system": "FDPS", "assay": "Protein level in patient after Tempol treatment", "assay_type": "in vivo, human", "details": "1500 mg per day for 180 days", "description": "as §1, §2"}, "[1]": {"test_system": "farnesyl diphosphate synthase (FDPS)", "assay": "Gene expression in white adipose tissue of mice, Affymetrix MOE430A 2.0 microarray", "assay_type": "in vivo", "description": "(§3) In a gene expression study, Tempol was administered to experimental mice at a dose of 5 g/kg of diet from 12 months through 15 months. Mice receiving the same diet without the addition of Tempol were used as a negative control. At the age of 15 months, the white adipose tissue of the experimental animals was obtained. The expression of a broad spectrum of genes in the adipose tissue was assessed using chip-based microarray technology. Specifically, in this case an Affymetrix MOE430A 2.0 array, containing 12,960 genes, was employed. Such chips are well known in the art and are widely used to assess gene expression."}, "[2]": {"test_system": "NAD(P) dependent steroid dehydrogenase-like (NSDHL)", "assay": "Gene expression in white adipose tissue of mice, Affymetrix MOE430A 2.0 microarray", "assay_type": "in vivo", "description": "as §3"}, "[3]": {"test_system": "lanosterol synthase (LSS)", "assay": "Gene expression in white adipose tissue of mice, Affymetrix MOE430A 2.0 microarray", "assay_type": "in vivo", "description": "as §3"}, "[4]": {"details": "Example 1: 70-kilogram patient with hypercholesterolemia"}, "[5]": {"details": "Example 2: 70-kilogram patient at risk for hypercholesterolemia"}, "[6]": {"details": "adipose tissue of mice treated with Tempol"}}, "data": [{"compound": "CC1(C)CC(O)CC(C)(C)N1[O]", "note": "[Tempol, 4-hydroxy-2,2,6,6-tetramethylpiperidine-1-oxyl]", "values": [{"measurement": "protein level of NSDHL", "setting": "NSDHL; [4]", "result": "reduced"}, {"measurement": "protein level of NSDHL", "setting": "NSDHL; [5]", "result": "reduced"}, {"measurement": "protein level of LSS", "setting": "LSS; [4]", "result": "reduced"}, {"measurement": "protein level of LSS", "setting": "LSS; [5]", "result": "reduced"}, {"measurement": "protein level of FDPS", "setting": "FDPS; [4]", "result": "reduced"}, {"measurement": "protein level of FDPS", "setting": "FDPS; [5]", "result": "reduced"}, {"measurement": "Fold change", "setting": "[1]; FDPS expression, Tempol-treated vs control mice, white adipose tissue", "result": "−2.08"}, {"measurement": "Mean (Tempol-treated mice)", "setting": "[1]; FDPS expression, white adipose tissue, 5 g/kg of diet from 12 through 15 months", "result": 1274}, {"measurement": "expression of FDPS decreased", "setting": "[1]; [6]", "result": 2.08, "unit": "fold"}, {"measurement": "Fold change", "setting": "[2]; NSDHL expression, Tempol-treated vs control mice, white adipose tissue", "result": "−1.64"}, {"measurement": "Mean (Tempol-treated mice)", "setting": "[2]; NSDHL expression, white adipose tissue, 5 g/kg of diet from 12 through 15 months", "result": 1398}, {"measurement": "expression of NSHDL decreased", "setting": "[2]; [6]", "result": 1.64, "unit": "fold"}, {"measurement": "Fold change", "setting": "[3]; LSS expression, Tempol-treated vs control mice, white adipose tissue", "result": "−2.33"}, {"measurement": "Mean (Tempol-treated mice)", "setting": "[3]; LSS expression, white adipose tissue, 5 g/kg of diet from 12 through 15 months", "result": 224}, {"measurement": "expression of LSS decreased", "setting": "[3]; [6]", "result": 2.33, "unit": "fold"}]}]}
